The values that follow come from PubChem BioAssay (NCI).

The structures appear in SMILES notation.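 Cultured in 96-well plates, cells were exposed to test compound for 48 hours across five concentrations. The concentration for full growth arrest is given as TGI.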

Among the test systems are A498 renal; UACC-62 melanoma; SW-620 colon; NCI-H226 lung; SK-MEL-5 melanoma; ACHN renal; SNB-19 CNS; OVCAR-5 ovarian; HCT-15 colon; MOLT-4 leukemia; SR leukemia; COLO 205 colon; SF-539 CNS; CAKI-1 renal; HOP-92 NSCLC; EKVX NSCLC; NCI-H460 lung; A549 NSCLC; PC-3 prostate; MCF7 breast.
Holding throughout (assay): NCI-60 cell line screen, 48 h

As to `O=C(Nc1ccc(Cl)cc1)C(=O)C(C(=O)c1ccccc1-c1ccccc1)C1OC(=O)c2ccccc21` (centres undefined), the TGI came out at 38.7 µM in the experiment on A498 renal; 29.5 µM with UACC-62 melanoma; 46.2 µM in the experiment with SW-620 colon; 24 µM with NCI-H226 lung; 32 µM in the experiment with SK-MEL-5 melanoma; 92.4 µM with ACHN renal. Further, the TGI is 38.2 µM with SNB-19 CNS; 92.4 µM in the experiment on OVCAR-5 ovarian; 37.3 µM in the experiment on HCT-15 colon; greater than 100 µM with MOLT-4 leukemia; 82.9 µM in the experiment with SR leukemia; 44.4 µM with COLO 205 colon. In addition, the TGI in the experiment on SF-539 CNS was determined as 58.4 µM; with CAKI-1 renal, 55.7 µM; in the experiment with HOP-92 NSCLC, 65.6 µM; in the experiment with EKVX NSCLC, 37.9 µM; in the experiment with NCI-H460 lung, 40.1 µM; with A549 NSCLC, 50.7 µM.
With `COC(=O)C(Cc1cn(C(C)=O)c2ccccc12)P(=O)(OC)OC` (centres undefined), the TGI with A498 renal, with UACC-62 melanoma, in the experiment with SW-620 colon, with NCI-H226 lung, in the experiment on SK-MEL-5 melanoma and with PC-3 prostate was greater than 100 µM in each case. Besides, the TGI with ACHN renal, in the experiment on SNB-19 CNS, in the experiment on OVCAR-5 ovarian, in the experiment with HCT-15 colon, with SR leukemia and in the experiment with COLO 205 colon was greater than 100 µM each time. Moreover, the TGI with SF-539 CNS, in the experiment on MCF7 breast, in the experiment on CAKI-1 renal, in the experiment with HOP-92 NSCLC, with NCI-H460 lung and in the experiment on A549 NSCLC was greater than 100 µM throughout.
As to `Nc1nc(N)c2cc(Sc3ccc4nc(N)nc(N)c4c3)ccc2n1`, the TGI in the experiment with A498 renal, in the experiment on SW-620 colon, with NCI-H226 lung, with PC-3 prostate, in the experiment with ACHN renal and in the experiment with SNB-19 CNS was greater than 100 µM each time. Also, the TGI in the experiment on OVCAR-5 ovarian, in the experiment with HCT-15 colon, with MOLT-4 leukemia, in the experiment on SR leukemia, with COLO 205 colon and with SF-539 CNS was greater than 100 µM in each case. Further, the TGI in the experiment on CAKI-1 renal, with HOP-92 NSCLC, in the experiment on EKVX NSCLC, with NCI-H460 lung and in the experiment on A549 NSCLC was greater than 100 µM each time.
On to `O=C(Nc1cccc2ccccc12)Nn1cnnc1`, for which the TGI with A498 renal, in the experiment on UACC-62 melanoma, in the experiment on SW-620 colon, in the experiment with NCI-H226 lung, in the experiment with SK-MEL-5 melanoma and with PC-3 prostate was greater than 100 µM in each case. For the same molecule, the TGI in the experiment with ACHN renal, in the experiment with SNB-19 CNS, with OVCAR-5 ovarian, in the experiment with HCT-15 colon, in the experiment on MOLT-4 leukemia and in the experiment on SR leukemia was greater than 100 µM throughout. Also, the TGI in the experiment with COLO 205 colon, with SF-539 CNS, in the experiment on MCF7 breast, in the experiment on CAKI-1 renal, in the experiment on HOP-92 NSCLC and in the experiment on EKVX NSCLC was greater than 100 µM throughout. Besides, the TGI in the experiment on NCI-H460 lung and in the experiment with A549 NSCLC was greater than 100 µM throughout.
Regarding `C/C1=C/C(C)CC(C)OC(=O)C(C)NC(=O)C(Cc2ccc(O)c(I)c2)N(C)C(=O)CNC(=O)C(C)C1` (centres undefined), the TGI with A498 renal is less than 0.0134 µM; with UACC-62 melanoma, greater than 20.9 µM; in the experiment with SW-620 colon, greater than 100 µM; with SK-MEL-5 melanoma it was 13.2 µM; in the experiment on SNB-19 CNS, greater than 100 µM; with OVCAR-5 ovarian, greater than 100 µM. Further, the TGI with HCT-15 colon is 11.2 µM; in the experiment on MOLT-4 leukemia, greater than 52.7 µM; in the experiment on COLO 205 colon, greater than 100 µM; with SF-539 CNS it was 4.94 µM; with MCF7 breast, greater than 100 µM; in the experiment with CAKI-1 renal it was less than 0.01 µM. Also, the TGI was 0.0654 µM in the experiment with HOP-92 NSCLC, greater than 21.9 µM in the experiment on EKVX NSCLC, greater than 59.7 µM in the experiment with NCI-H460 lung and greater than 100 µM with A549 NSCLC.
